# According to US20190298740A1, “METHODS AND COMPOSITIONS FOR TREATING HALLUCINATIONS AND CONDITIONS RELATED TO THE SAME” (Enterin, Inc., priority 2018, published 2019):
# Where two headings read alike, the source gives them in different places.
# How the values were obtained:
# αS = αS (Homo sapiens, UniProt P37840); conditions: in vitro; cited from earlier work
# patients with PD [1] = assay: Sleep diary: total sleep time and REM-behavior disorder; assay type: in vivo, human
# From the text: (5) Sleep Diary (participants completed a sleep diary on a daily basis throughout the study. The diaries included time into bed and estimated time to sleep as well as wake time and duration during the night);
# (§1) Exploratory end-points, in addition to constipation, included for example, (i) depression assessed using the Beck Depression Inventory (BDI-II) (Steer et al. 2000) and Unified Parkinson's Disease Rating Scale (UPDRS); (ii) cognition assessed using the Mini Mental State Examination (MMSE) (Palsteia et al. 2018), Unified Parkinson's Disease Rating Scale (UPDRS), and Trail Making Test (TMT); (iii) sleep and REM-behavior disorder (RBD) using a daily sleep diary, I-Button Temperature Assessment, a REM sleep behavior disorder (RBD) questionnaire (RBDQ) (Stiasny-Kolster et al. 2007), and the UPDRS; (iv) hallucinations assessed using the PD hallucinations questionnaire (PDHQ) (Papapetropoulos et al. 2008), the UPDRS, and direct questioning; (v) fatigue using the Parkinson's Disease Fatigue Scale (PFS-16) and the UPDRS; (vi) motor functions using the UPDRS; and (vii) non-motor functions using the UPDRS.
# patients with PD [2] = assay: CNS symptoms in Stage 2 (UPDRS, MMSE, PDHQ, BDI-II, direct questioning); assay type: in vivo, human; conditions: for PDHQ / BDI-II / UPDRS Part 2 (Daily living) / MMSE / UPDRS Part 3 (Motor): mean (SD); for PDHQ: baseline 1.3 (2.99); for BDI-II: baseline 10.9 (7.12); for UPDRS Part 2 (Daily living): baseline 14.9 (8.11); for MMSE: baseline 28.4 (1.75); for UPDRS Part 3 (Motor): baseline 35.3 (14.35)
# From the text: as §1
# Assessments were made at baseline and at the end of the fixed dose and washout periods. Circadian system status was evaluated by continuously monitoring wrist skin temperature (Thermochron iButton DS1921H; Maxim, Dallas) following published procedures (Sarabia et al. 2008).
# An exploratory analysis was done with respect to the sleep data, the body temperature data, mood, fatigue, hallucinations, cognition and other motor and non-motor symptoms of PD. Continuous measurements within a subject were compared with a paired t-test and continuous measurements between subject groups were compared with a two-group t-test. Categorical data were compared with a chi-squared test or a Fisher's exact test if the expected cell counts are too small for a chi-squared test.
# CNS symptoms were evaluated at baseline and at the end of the fixed dose period and the wash-out period (Table 13). Total UPDRS score was 64.4 at baseline, 60.6 at the end of the fixed dose period and 55.7 at the end of the wash-out period (p=0.002); similarly, the motor component of the UPDRS improved from 35.3 at baseline to 33.3 at the end of fixed dose to 30.2 at the end of wash-out (p=0.006). MMSE improved from 28.4 at baseline to 28.7 during treatment and to 29.3 during wash-out (p=0.0006). […] PDHQ improved from 1.3 at baseline to 1.8 during treatment and 0.9 during wash-out (p=0.03). Hallucinations were reported by 5 patients at baseline and delusions in 1 patient. […] The frequency of arm or leg thrashing reported in the sleep diary diminished progressively from 2.2 episodes/week at baseline to 0 at maximal dose. […] Unlike stool-related indices, the improvement in many CNS symptoms persisted during wash-out.
# [3] = Preclinical oral dosing studies in dogs; conditions: dog, in vivo
# [4] = Pharmacokinetics of orally administered squalamine (ENT-01), Phase 2 trial; assay type: in vivo; conditions: human; for AUC(0-t) / half-life / Cmax / Tmax: po; for Cmax: mean, approximate; for Tmax: read-out: Tmax (median value)
# Description: PK data were collected on the 10 patients enrolled in Stage 1 and 10 patients enrolled in Stage 2 to determine the extent of systemic absorption. In Stage 1, PK data were obtained at each visit, pre-medication, at 1, 2, 4, 8 and 24 hours (Table 11). In Stage 2, PK was measured on days 1 and 6 of the randomization period pre-medication, at 1, 2, 4 and 8 hours (Table 12).
# The mean Cmax, Tmax and T1/2 and AUC of the squalamine ion following squalamine (ENT-01) oral dosing for Stage 1 patients. The PK analyses are only approximate, as the lower limit of the validated concentration range was 10 ng/ml; most of the measured concentrations fell below that value. The mean Cmax, Tmax and T1/2 and AUC of the squalamine ion following squalamine (ENT-01) oral dosing for Stage 2 patients. The PK analyses are only approximate, as the lower limit of the validated concentration range was 0.5 ng/ml.
# [5] = Stage 2, n = 34, fixed dose, listed as Squalamine (ENT-01)
# [6] = in vivo, 50 mg, Stage 1, 50 mg oral, 10 patients
# [7] = in vivo, 100 mg, Stage 2, 100 mg oral daily, 4 patients (2 visits each)
# [8] = in vivo, 175 mg, Stage 1, 175 mg oral, 7 patients
# [9] = in vivo, 175 mg, Stage 2, 175 mg oral daily, 5 patients (2 visits each)
# [10] = plasma, 25 mg, Stage 1, 25 mg oral, 9 patients
# [11] = plasma, 75 mg, Stage 1, 75 mg oral, 9 patients
# [12] = plasma, 75 mg, Stage 2, 75 mg oral daily, 1 patient (2 visits)
# [13] = plasma, 100 mg, Stage 1, 100 mg oral, 9 patients
# [14] = plasma, 125 mg, Stage 1, 125 mg oral, 9 patients
# [15] = plasma, 200 mg, Stage 1, 200 mg oral, 6 patients
structure (smiles),measurement,setting,value
"CC(C)[C@@H](CC[C@@H](C)[C@H]1CC[C@H]2[C@@H]3[C@H](O)C[C@H]4C[C@@H](NCCCNCCCCN)CC[C@]4(C)[C@H]3CC[C@]12C)OS(=O)(=O)O (single isomer, unassigned) [squalamine (ENT-01)]",Formation of aggregates of αS,αS,inhibits the formation of αS aggregates
same,Dose beyond which total sleep time was consistently higher than baseline,patients with PD [1]; Stage 2,> 125 mg
same,Total sleep time,"patients with PD [1]; at 250 mg, baseline 7.1 hours",8.4 h
same,Frequency of arm or leg thrashing (sleep diary),"patients with PD [1]; at maximal dose, baseline 2.2",0 episodes/week
same,PDHQ,"patients with PD [2]; Stage 2, n = 34, fixed dose",1.8
same,PDHQ,patients with PD [2]; [5],1.8 (3.34)
same,BDI-II,"patients with PD [2]; Stage 2, n = 34, fixed dose",9.9
same,UPDRS Part 2 (Daily living),"patients with PD [2]; Stage 2, n = 34, fixed dose",14.7 (9.02)
same,MMSE,"patients with PD [2]; Stage 2, n = 34, fixed dose",28.7
same,UPDRS Part 3 (Motor),"patients with PD [2]; Stage 2, n = 34, fixed dose",33.3
same,UPDRS Part 3 (Motor),patients with PD [2]; [5],33.3 (15.20)
same,PDHQ,"patients with PD [2]; Stage 2, n = 34, wash-out",0.9
same,BDI-II,"patients with PD [2]; Stage 2, n = 34, wash-out",8.7
same,UPDRS Part 2 (Daily living),"patients with PD [2]; Stage 2, n = 34, wash-out",14.1 (8.21)
same,MMSE,"patients with PD [2]; Stage 2, n = 34, wash-out",29.3
same,UPDRS Part 3 (Motor),"patients with PD [2]; Stage 2, n = 34, wash-out",30.2
same,UPDRS Part 3 (Motor),"patients with PD [2]; Stage 2, n = 34, wash-out, listed as Squalamine (ENT-01)",30.2 (13.23)
same,Dose at which the hallucinations disappeared,"patients with PD [2]; one patient, colonic prokinetic dose 175 mg not yet reached",100 mg
same,bioavailability,[3],~0.1%
same,AUC(0-t),"[4]; in vivo, 25 mg, Stage 1, 25 mg oral, 9 patients, read-out: AUC0-8hr",10.8 ng·h/mL
same,AUC(0-t),"[4]; in vivo, 25 mg, Stage 1, 25 mg oral, 9 patients, read-out: AUC0-16hr",19.6 ng·h/mL
same,half-life,"[4]; in vivo, 25 mg, Stage 1, 25 mg oral, n = 3, read-out: T½ (converted)",2.6 h
same,Cmax,[4]; [6],3.73 ng/mL
same,AUC(0-t),"[4]; in vivo, 50 mg, Stage 1, 50 mg oral, 10 patients, read-out: AUC0-8hr",18.5 ng·h/mL
same,AUC(0-t),"[4]; in vivo, 50 mg, Stage 1, 50 mg oral, 10 patients, read-out: AUC0-16hr",33.1 ng·h/mL
same,Tmax,[4]; [6],2 h
same,half-life,"[4]; in vivo, 50 mg, Stage 1, 50 mg oral, n = 3, read-out: T½ (converted)",3.4 h
same,Cmax,[4]; [7],17.7 ng/mL
same,AUC(0-t),"[4]; in vivo, 100 mg, Stage 2, 100 mg oral daily, 4 patients (2 visits each), read-out: AUC0-8 hr",70.3 ng·h/mL
same,Tmax,[4]; [7],1 h
same,half-life,"[4]; in vivo, 100 mg, Stage 2, 100 mg oral daily, n = 5, read-out: T1/2 (converted)",4.8 h
same,AUC(0-t),"[4]; in vivo, 150 mg, Stage 1, 150 mg oral, 7 patients, read-out: AUC0-8hr",31.5 ng·h/mL
same,AUC(0-t),"[4]; in vivo, 150 mg, Stage 1, 150 mg oral, 7 patients, read-out: AUC0-16hr",64 ng·h/mL
same,Tmax,"[4]; in vivo, 150 mg, Stage 1, 150 mg oral, 7 patients",2 h
same,half-life,"[4]; in vivo, 150 mg, Stage 1, 150 mg oral, n = 4, read-out: T½ (converted)",5.6 h
same,Cmax,[4]; [8],10.3 ng/mL
same,AUC(0-t),"[4]; in vivo, 175 mg, Stage 1, 175 mg oral, 7 patients, read-out: AUC0-8hr",49.7 ng·h/mL
same,Tmax,[4]; [8],2 h
same,half-life,"[4]; in vivo, 175 mg, Stage 1, 175 mg oral, n = 6, read-out: T½ (converted)",9.1 h
same,Cmax,[4]; [9],11.8 ng/mL
same,AUC(0-t),"[4]; in vivo, 175 mg, Stage 2, 175 mg oral daily, 5 patients (2 visits each), read-out: AUC0-8 hr",66.8 ng·h/mL
same,Tmax,[4]; [9],2 h
same,half-life,"[4]; in vivo, 175 mg, Stage 2, 175 mg oral daily, n = 6, read-out: T1/2 (converted)",10 h
same,Cmax,[4]; [10],2.84 ng/mL
same,Tmax,[4]; [10],1 h
same,Cmax,[4]; [11],4.33 ng/mL
same,AUC(0-t),"[4]; plasma, 75 mg, Stage 1, 75 mg oral, 9 patients, read-out: AUC0-8hr",18.4 ng·h/mL
same,AUC(0-t),"[4]; plasma, 75 mg, Stage 1, 75 mg oral, 9 patients, read-out: AUC0-16hr",29.8 ng·h/mL
same,Tmax,[4]; [11],2 h
same,half-life,"[4]; plasma, 75 mg, Stage 1, 75 mg oral, n = 2, read-out: T½ (converted)",2.8 h
same,Cmax,[4]; [12],10 ng/mL
same,AUC(0-t),"[4]; plasma, 75 mg, Stage 2, 75 mg oral daily, 1 patient (2 visits), read-out: AUC0-8 hr",59 ng·h/mL
same,Tmax,[4]; [12],3 h
same,half-life,"[4]; plasma, 75 mg, Stage 2, 75 mg oral daily, n = 1, read-out: T1/2 (converted)",5.5 h
same,Cmax,[4]; [13],6.18 ng/mL
same,AUC(0-t),"[4]; plasma, 100 mg, Stage 1, 100 mg oral, 9 patients, read-out: AUC0-8hr",29.6 ng·h/mL
same,AUC(0-t),"[4]; plasma, 100 mg, Stage 1, 100 mg oral, 9 patients, read-out: AUC0-16hr",51.5 ng·h/mL
same,Tmax,[4]; [13],2 h
same,half-life,"[4]; plasma, 100 mg, Stage 1, 100 mg oral, n = 5, read-out: T½ (converted)",3.9 h
same,Cmax,[4]; [14],9.63 ng/mL
same,AUC(0-t),"[4]; plasma, 125 mg, Stage 1, 125 mg oral, 9 patients, read-out: AUC0-8hr",43.1 ng·h/mL
same,AUC(0-t),"[4]; plasma, 125 mg, Stage 1, 125 mg oral, 9 patients, read-out: AUC0-16hr",77.7 ng·h/mL
same,Tmax,[4]; [14],2 h
same,half-life,"[4]; plasma, 125 mg, Stage 1, 125 mg oral, n = 4, read-out: T½ (converted)",3.9 h
same,Cmax,"[4]; plasma, 150 mg, Stage 1, 150 mg oral, 7 patients",6.27 ng/mL
same,AUC(0-t),"[4]; plasma, 175 mg, Stage 1, 175 mg oral, 7 patients, read-out: AUC0-16hr",91.2 ng·h/mL
same,Cmax,[4]; [15],15.1 ng/mL
same,AUC(0-t),"[4]; plasma, 200 mg, Stage 1, 200 mg oral, 6 patients, read-out: AUC0-8hr",78.3 ng·h/mL
same,AUC(0-t),"[4]; plasma, 200 mg, Stage 1, 200 mg oral, 6 patients, read-out: AUC0-16hr",157 ng·h/mL
same,Tmax,[4]; [15],2 h
same,half-life,"[4]; plasma, 200 mg, Stage 1, 200 mg oral, n = 5, read-out: T½ (converted)",9 h
same,bioavailability,"[4]; plasma, Stage 1, oral dosing up to 200 mg (114 mg/m^2), compared with prior phase 1 IV data, read-out: Approximate oral bioavailability",~0.1%
